Common to all, as to test: DTP human tumour cell line panel, 48 h
In assay [1] the test system is 786-0 renal.
Assay [2] relates to ACHN renal.
For assay [3], the system named is BT-549 breast.
The test system of assay [4] is HS 578T breast.
The test system of assay [5] is NCI/ADR-RES ovarian.
The subject of assay [6] is MDA-MB-231 breast.
In assay [7] the test system is LOX IMVI melanoma.
For assay [8], the system named is SF-268 CNS.
Assay [9] relates to T-47D breast.

Values joined by “and” are separate entries in the source; they are usually repeats but may differ in a detail not shown here. Equal values may be shown once.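 Tested at 5 concentrations; 48 h exposure; 96-well plates; endpoints linearly interpolated, else capped at highest concentration. GI50 is the concentration that inhibits growth by half. TGI is the concentration that stops growth completely.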

Broadly, the GI50 is the concentration at which growth is held to half of that of the control. The TGI is the concentration giving total growth inhibition. Consider `OC(CNc1ccnc2cc(Cl)ccc12)CNc1ccnc2cc(Cl)ccc12`, for which the GI50 in [1] is 1810 nM; in [2] it was 5.09 µM; in assay [3], 1670 nM; in [4], 1970 nM; in assay [5], over 100 µM; in [6], 1730 nM. Besides, the total growth inhibition concentration (TGI) in assay [1] is 3.39 µM; in [2], 28.2 µM; in assay [3], 3.13 µM; in [4] it was 4.16 µM; in assay [5], over 100 µM; in assay [6] it was 3.44 µM.

As for `COC(=O)c1cc2c(=O)n(C)c3ccccc3n2c1C(=O)OC`, the TGI in assay [1] is 50.3 µM; in [7], over 100 µM; in [8], over 100 µM; in [2], over 100 µM.

For the molecule `Nc1nc(/C=C\c2ccc([N+](=O)[O-])s2)nc(N2CCN(c3ccccc3)CC2)n1`, the GI50 in assay [9] is 14.2 µM; in assay [1], 24200 nM; in assay [7], 15.7 µM; in [8], 27200 nM; in assay [2], 19 µM; in assay [3], 21800 nM. The values for the GI50 in [4], in assay [5] and in assay [6] were 540 nM, 21.3 µM and 13000 nM, respectively. In addition, the TGI in [9] was 43.2 µM; in assay [1], 48.7 µM; in assay [7] it was 29.1 µM; in [8], 80 µM; in [2], 41.4 µM; in assay [3] it was 48 µM. Also, the concentration for total growth inhibition (TGI) was found to be 14.6 µM in [4], 53 µM in assay [5] and 29.6 µM in assay [6].

For the molecule `CCOC(OC(C)=O)[C@@H]1C=C[C@H](C)N(c2ccc([N+](=O)[O-])cc2)O1` (stereo not given in full), the concentration for total growth inhibition (TGI) in [1] is 7.23 µM; in assay [7], 4.12 µM; in assay [8], 15.6 µM; in [2], 13 µM.

As for `CC(=O)Nc1ccc(/C=C/C(=O)c2sc(-c3cccnc3)nc2C)cc1`, the concentration for total growth inhibition (TGI) in [1], in [7], in [8] and in assay [2] was over 100 µM in each case.

For the molecule `COc1c/c(=C2\C=c3ccccc3=N2)[nH]/c1=C\c1[nH]c(C)cc1C`, the 50% growth inhibitory concentration (GI50) was under 0.0211 µM in assay [9]; 48 nM in assay [1]; under 0.01 µM in [7]; 63.1 nM in [8]; under 0.0224 µM in assay [2]; 31.9 nM in assay [3]. The GI50 is 13.1 nM in assay [4], 0.17 µM in assay [5] and 11.7 nM in [6]. Moreover, the total growth inhibition concentration (TGI) was found to be 6.05 µM in [9]; 4.21 µM in assay [1]; 37.7 µM in assay [8]; 2.33 µM in assay [2]; 31.3 µM in assay [3]; 0.433 µM in [4]. In addition, the values for the TGI in assay [5] and in assay [6] were over 55.3 µM and 3.87 µM, respectively.

`Cc1c(C)n(CCCN2CCN(C)CC2)c2ccc(Oc3cccc(C(=O)N4CCN(CCc5ccc(F)cc5)CC4)c3)cc12`: the GI50 in assay [1] was 1530 nM; in assay [7], 1.75 µM; in assay [8], 1790 nM; in [2], 1.67 µM; in assay [3], 1580 nM; in assay [4], 2050 nM. The values for the GI50 in assay [5] and in [6] were 1.79 µM and 1820 nM, respectively. In addition, the TGI in assay [1] was 2.95 µM; in [7], 3.19 µM; in [8], 3.78 µM; in assay [2] it was 3.06 µM; in [3] it was 3.19 µM; in assay [4], 4.51 µM. In addition, the TGI in [5] amounted to 3.54 µM; in assay [6], 3.43 µM.

For `N#C/C(=C\c1cc(O)cc(O)c1)C(N)=O`, the total growth inhibition concentration (TGI) in assay [1], in assay [8] and in [2] was over 100 µM in each case.

As to `O=C1[C@H]2ON(c3ccccc3)C(c3ccc([N+](=O)[O-])cc3)[C@H]2C(=O)N1c1ccc(Cc2ccc(N3C(=O)[C@@H]4ON(c5ccccc5)C(c5ccc([N+](=O)[O-])cc5)[C@@H]4C3=O)cc2)cc1` (stereo not given in full), the TGI in [1], in assay [7], in assay [8] and in [2] was over 100 µM throughout.

As for `O=c1c2c(nc3n1CCS3)[nH]c1cc([N+](=O)[O-])ccc12`, the GI50 in assay [9] was 45 µM; in assay [1] it was over 100000 nM; in assay [7] it was over 100 µM; in assay [8], over 100000 nM; in assay [2], over 100 µM; in assay [4], over 100000 nM. Also, the GI50 in assay [5] is over 100 µM; in assay [6], over 100000 nM. In addition, the TGI in [9], in assay [1], in [7], in assay [8], in assay [2] and in [4] was over 100 µM in each case. Besides, the TGI in [5] and in assay [6] was over 100 µM each time.

As for `COC(=O)[C@@H]1c2cc3c(c(O)c2[C@@H](OC2OC(C)C(OC)C(C)(OC)C2OC)C[C@]1(C)O)C(=O)c1c(O)cc2c(c1C3=O)O[C@H]1O[C@]2(C)[C@H](O)[C@@H](N(C)C)[C@@H]1O` (stereo not given in full), the concentration for total growth inhibition (TGI) was 0.889 µM in [9]; 2.1 µM in [1]; 0.152 µM and 1.22 µM in [7]; 0.329 µM and 0.135 µM in assay [8]; 0.951 µM and 5.37 µM in [2]; 0.0588 µM in assay [3]. Besides, the total growth inhibition concentration (TGI) was determined as 0.147 µM in assay [4] and 0.214 µM in assay [6]. The 50% growth inhibitory concentration (GI50) in [2] is 0.0114 µM.

On to `C=CCNC(=O)NCCCCC(NC(C)=O)C(=O)NCc1ccccc1` (stereo not given), for which the TGI in assay [1], in [7], in assay [8] and in assay [2] was over 100 µM throughout.

For `NNC(=O)C(=O)N/N=C(\CCCC(=O)Nc1ccc(Cl)cc1)CC(=O)c1ccc(F)cc1`, the TGI in [1], in assay [7], in assay [8] and in assay [2] was over 100 µM in each case.

These data come from PubChem BioAssay (NCI).
